From patent publication US11447466B2, “Substituted indole compounds useful as inhibitors of TLR7/8/9” (BRISTOL-MYERS SQUIBB COMPANY, priority 2017, dated 2022)

Tests used:
Format in all cases: cell-based
[1] = biological target: T1, human TLR9 (Homo sapiens, UniProt Q9NR96); test: TLR9 inhibition reporter assay (HEK-Blue SEAP reporter, ODN2006 stimulation); settings: HEK-Blue cells overexpressing human TLR9, SEAP reporter, ODN2006 5 nM, 22 hour incubation
T1 construct: host or cells: HEK-Blue cells
T1 sequence (Q9NR96 26-1032): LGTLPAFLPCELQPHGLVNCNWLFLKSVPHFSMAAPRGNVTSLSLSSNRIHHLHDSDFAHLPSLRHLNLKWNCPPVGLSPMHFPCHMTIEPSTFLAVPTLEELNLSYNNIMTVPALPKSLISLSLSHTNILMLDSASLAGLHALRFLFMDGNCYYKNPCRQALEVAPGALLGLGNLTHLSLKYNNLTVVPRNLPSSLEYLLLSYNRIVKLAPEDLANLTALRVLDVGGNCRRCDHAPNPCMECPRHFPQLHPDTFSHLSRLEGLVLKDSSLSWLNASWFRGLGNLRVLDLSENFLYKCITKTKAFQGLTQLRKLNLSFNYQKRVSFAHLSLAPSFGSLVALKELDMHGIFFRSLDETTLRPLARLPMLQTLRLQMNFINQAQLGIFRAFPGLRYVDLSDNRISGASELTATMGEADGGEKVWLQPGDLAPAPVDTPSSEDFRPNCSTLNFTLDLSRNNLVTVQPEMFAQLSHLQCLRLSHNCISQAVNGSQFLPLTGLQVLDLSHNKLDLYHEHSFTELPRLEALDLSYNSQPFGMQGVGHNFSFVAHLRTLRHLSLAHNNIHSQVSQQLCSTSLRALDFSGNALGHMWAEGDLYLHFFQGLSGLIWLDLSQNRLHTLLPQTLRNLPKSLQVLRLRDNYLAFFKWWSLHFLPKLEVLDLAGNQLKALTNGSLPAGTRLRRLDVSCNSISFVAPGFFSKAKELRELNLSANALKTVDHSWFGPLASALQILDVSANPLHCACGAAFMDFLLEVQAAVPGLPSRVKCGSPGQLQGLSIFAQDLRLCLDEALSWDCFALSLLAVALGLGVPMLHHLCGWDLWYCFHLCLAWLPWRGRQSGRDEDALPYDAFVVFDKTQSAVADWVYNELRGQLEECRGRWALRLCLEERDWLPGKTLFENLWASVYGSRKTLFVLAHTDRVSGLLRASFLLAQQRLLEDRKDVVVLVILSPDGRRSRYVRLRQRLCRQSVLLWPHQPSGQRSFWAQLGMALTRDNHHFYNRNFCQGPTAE
How it was run: (§1)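 Agonists used: gardiquimod 7.5 μM (TLR7), R848 15.9 μM (TLR8), ODN2006 5 nM (TLR9), added after 30 min room-temperature compound pre-treatment (0.05 nM–50 μM) of receptor-overexpressing HEK-Blue cells. SEAP reporter (NF-κB/AP-1 driven) read after 22 h at 37 °C; inhibition scaled between agonist+DMSO and reference-inhibitor wells.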

[2] = biological target: T2, human TLR7 (Homo sapiens, UniProt Q9NYK1); test: TLR7 inhibition reporter assay (HEK-Blue SEAP reporter, gardiquimod stimulation); settings: HEK-Blue cells overexpressing human TLR7, SEAP reporter, gardiquimod 7.5 μM, 22 hour incubation
T2 construct: host or cells: HEK-Blue cells
T2 sequence (Q9NYK1 27-1049): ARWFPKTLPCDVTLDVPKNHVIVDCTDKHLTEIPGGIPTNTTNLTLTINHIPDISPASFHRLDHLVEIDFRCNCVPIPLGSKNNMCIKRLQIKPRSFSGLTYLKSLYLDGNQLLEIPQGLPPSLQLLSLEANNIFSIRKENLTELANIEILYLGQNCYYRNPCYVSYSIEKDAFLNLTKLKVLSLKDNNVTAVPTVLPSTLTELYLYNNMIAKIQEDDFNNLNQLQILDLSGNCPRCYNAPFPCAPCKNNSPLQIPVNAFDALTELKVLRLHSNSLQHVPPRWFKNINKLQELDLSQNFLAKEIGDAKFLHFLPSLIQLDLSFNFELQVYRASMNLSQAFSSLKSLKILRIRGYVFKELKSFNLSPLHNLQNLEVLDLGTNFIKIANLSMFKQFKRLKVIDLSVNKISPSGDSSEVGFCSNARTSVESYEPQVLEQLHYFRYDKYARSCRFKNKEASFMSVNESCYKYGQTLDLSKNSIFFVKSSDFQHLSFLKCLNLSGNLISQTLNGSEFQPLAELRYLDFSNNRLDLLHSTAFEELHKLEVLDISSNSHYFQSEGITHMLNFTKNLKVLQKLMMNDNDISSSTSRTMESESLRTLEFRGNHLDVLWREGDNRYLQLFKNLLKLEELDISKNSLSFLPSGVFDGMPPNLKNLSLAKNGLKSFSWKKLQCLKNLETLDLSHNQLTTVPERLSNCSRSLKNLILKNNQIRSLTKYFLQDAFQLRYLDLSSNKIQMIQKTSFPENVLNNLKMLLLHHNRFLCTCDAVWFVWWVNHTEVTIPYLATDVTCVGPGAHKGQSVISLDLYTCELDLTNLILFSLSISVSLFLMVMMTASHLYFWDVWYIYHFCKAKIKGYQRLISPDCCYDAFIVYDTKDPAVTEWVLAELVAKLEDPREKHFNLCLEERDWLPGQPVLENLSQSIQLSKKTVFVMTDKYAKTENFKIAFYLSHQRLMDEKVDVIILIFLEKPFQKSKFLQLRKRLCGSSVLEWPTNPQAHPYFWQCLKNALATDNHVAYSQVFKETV
How it was run: as §1

[3] = biological target: T3, human TLR8 (Homo sapiens, UniProt Q9NR97); test: TLR8 inhibition reporter assay (HEK-Blue SEAP reporter, R848 stimulation); settings: HEK-Blue cells overexpressing human TLR8, SEAP reporter, R848 15.9 μM, 22 hour incubation
T3 construct: host or cells: HEK-Blue cells
T3 sequence (Q9NR97 27-1041): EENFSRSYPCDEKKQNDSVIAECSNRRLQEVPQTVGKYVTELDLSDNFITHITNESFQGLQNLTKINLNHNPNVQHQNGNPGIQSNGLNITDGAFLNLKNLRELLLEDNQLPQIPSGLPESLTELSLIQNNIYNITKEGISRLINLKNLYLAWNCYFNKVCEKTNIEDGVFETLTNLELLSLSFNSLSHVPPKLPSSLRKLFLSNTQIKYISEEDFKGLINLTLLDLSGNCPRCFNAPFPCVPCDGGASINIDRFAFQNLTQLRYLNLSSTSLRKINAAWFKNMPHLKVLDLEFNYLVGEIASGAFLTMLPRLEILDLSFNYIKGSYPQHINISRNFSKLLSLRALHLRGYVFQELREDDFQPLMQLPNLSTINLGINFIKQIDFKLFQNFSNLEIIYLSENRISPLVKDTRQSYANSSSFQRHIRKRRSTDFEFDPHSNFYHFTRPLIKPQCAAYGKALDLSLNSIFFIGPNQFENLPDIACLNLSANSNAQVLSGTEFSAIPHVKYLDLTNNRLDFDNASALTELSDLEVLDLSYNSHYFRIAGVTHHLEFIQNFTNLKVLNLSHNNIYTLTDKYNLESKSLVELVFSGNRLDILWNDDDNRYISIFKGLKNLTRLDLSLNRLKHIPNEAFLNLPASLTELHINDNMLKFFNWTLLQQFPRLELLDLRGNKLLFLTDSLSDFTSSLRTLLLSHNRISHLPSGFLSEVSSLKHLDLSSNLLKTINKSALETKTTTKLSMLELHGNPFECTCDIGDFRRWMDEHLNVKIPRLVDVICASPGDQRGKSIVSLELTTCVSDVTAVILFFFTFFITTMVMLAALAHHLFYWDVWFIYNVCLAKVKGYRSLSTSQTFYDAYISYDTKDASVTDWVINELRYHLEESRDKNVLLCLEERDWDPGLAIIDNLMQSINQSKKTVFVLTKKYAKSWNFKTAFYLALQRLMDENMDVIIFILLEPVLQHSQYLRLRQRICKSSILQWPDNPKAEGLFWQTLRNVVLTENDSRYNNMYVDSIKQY
How it was run: as §1

IC50 [1] [nM]	IC50 [2] [nM]	IC50 [3] [nM]	Compound
851	7.3	2	CCCN1CCC(c2ccc3[nH]c(-c4cc(-c5cccnc5)c(=O)n(C)c4)c(C(C)C)c3c2)CC1 [Example 245, 5-(3-isopropyl-5-(1-propylpiperidin-4-yl)-1H-indol-2-yl)-1-methyl-[3,3′-bipyridin]-2(1H)-one]
387	2.9	1.7	CC(C)c1c(-c2cc(-c3cncnc3)c(=O)n(C)c2)[nH]c2ccc(C3CCN(C)CC3)cc12 [Example 246, 5-(3-isopropyl-5-(1-methylpiperidin-4-yl)-1H-indol-2-yl)-1-methyl-3-(pyrimidin-5-yl)pyridin-2(1H)-one]
864	3	4.1	CC(C)c1c(-c2cc(-c3cccnc3)c(=O)n(C)c2)[nH]c2ccc(C3CCN(C)CC3)cc12 [Example 247, 5-(3-isopropyl-5-(1-methylpiperidin-4-yl)-1H-indol-2-yl)-1-methyl-[3,3′-bipyridin]-2(1H)-one]
30000	5.6	16.9	Cc1c(-c2[nH]c3ccc(C4CCN(C5COC5)CC4)cc3c2C(C)C)cn(C)c(=O)c1Cl [Example 248, 3-chloro-5-(3-isopropyl-5-(1-(oxetan-3-yl)piperidin-4-yl)-1H-indol-2-yl)-1,4-dimethylpyridin-2(1H)-one]
3010	6.3	4.8	Cc1c(-c2[nH]c3ccc(C4CCN(CC5CCCO5)CC4)cc3c2C(C)C)cn(C)c(=O)c1Cl (stereo not drawn) [Example 250, 3-chloro-5-(3-isopropyl-5-(1-((tetrahydrofuran-2-yl)methyl)piperidin-4-yl)-1H-indol-2-yl)-1,4-dimethylpyridin-2(1H)-one]
3530	3.5	8.1	CCCCN1CCC(c2ccc3[nH]c(-c4cn(C)c(=O)c(Cl)c4C)c(C(C)C)c3c2)CC1 [Example 251, 5-(5-(1-butylpiperidin-4-yl)-3-isopropyl-1H-indol-2-yl)-3-chloro-1,4-dimethylpyridin-2(1H)-one]
2660	4.2	2.7	Cc1c(-c2[nH]c3ccc(C4CCN(CC5CCOC5)CC4)cc3c2C(C)C)cn(C)c(=O)c1Cl (stereo not drawn) [Example 252, 3-chloro-5-(3-isopropyl-5-(1-((tetrahydrofuran-3-yl)methyl)piperidin-4-yl)-1H-indol-2-yl)-1,4-dimethylpyridin-2(1H)-one]
1240	6.1	5.2	Cc1c(-c2[nH]c3ccc(C4CCN(CC(O)CO)CC4)cc3c2C(C)C)cn(C)c(=O)c1Cl (stereo not drawn) [Example 253, 3-chloro-5-(5-(1-(2,3-dihydroxypropyl)piperidin-4-yl)-3-isopropyl-1H-indol-2-yl)-1,4-dimethylpyridin-2(1H)-one]
2670	5.5	2.1	Cc1c(-c2[nH]c3ccc(C4CCN(CC5CCOC5)CC4)cc3c2C(C)C)cn(C)c(=O)c1Cl (stereo not drawn) [Example 254, 3-chloro-5-(3-isopropyl-5-(1-((tetrahydrofuran-3-yl)methyl)piperidin-4-yl)-1H-indol-2-yl)-1,4-dimethylpyridin-2(1H)-one]
1820	4.8	2.3	Cc1c(-c2[nH]c3ccc(C4CCN(CC5CCOC5)CC4)cc3c2C(C)C)cn(C)c(=O)c1Cl (stereo not drawn) [Example 255, 3-chloro-5-(3-isopropyl-5-(1-((tetrahydrofuran-3-yl)methyl)piperidin-4-yl)-1H-indol-2-yl)-1,4-dimethylpyridin-2(1H)-one]
1470	12.4	1.7	CC(C)CN1CCC(c2ccc3[nH]c(-c4cc(-c5cncnc5)c(=O)n(C)c4)c(C(C)C)c3c2)CC1 [Example 256, 5-(5-(1-isobutylpiperidin-4-yl)-3-isopropyl-1H-indol-2-yl)-1-methyl-3-(pyrimidin-5-yl)pyridin-2(1H)-one]
1980	15.6	1.1	CC(C)c1c(-c2cc(-c3cncnc3)c(=O)n(C)c2)[nH]c2ccc(C3CCN(CC4CCOC4)CC3)cc12 (stereo not drawn) [Example 257, 5-(3-isopropyl-5-(1-((tetrahydrofuran-3-yl)methyl)piperidin-4-yl)-1H-indol-2-yl)-1-methyl-3-(pyrimidin-5-yl)pyridin-2(1H)-one]
832	4.5	1.1	CCCN1CCC(c2ccc3[nH]c(-c4cc(-c5cncnc5)c(=O)n(C)c4)c(C(C)C)c3c2F)CC1 [Example 258, 5-(4-fluoro-3-isopropyl-5-(1-propylpiperidin-4-yl)-1H-indol-2-yl)-1-methyl-3-(pyrimidin-5-yl)pyridin-2(1H)-one]
983	6.1	0.6	CC(C)c1c(-c2cc(-c3cncnc3)c(=O)n(C)c2)[nH]c2ccc(C3CCN(CC4CCOC4)CC3)c(F)c12 (stereo not drawn) [Example 259, 5-(4-fluoro-3-isopropyl-5-(1-((tetrahydrofuran-3-yl)methyl)piperidin-4-yl)-1H-indol-2-yl)-1-methyl-3-(pyrimidin-5-yl)pyridin-2(1H)-one]
